# Measured values published in article PMC9101642 (Molecules, 2022).
# Marks after values point to notes of the source that are not given here.
# Experiments:
# [1] = test system: Ishikawa endometrial adenocarcinoma cells; test: Antiproliferative assay; assay type: cell-based; conditions: Homo sapiens, growth inhibition
# ERα = molecular target: T1, ERα (Homo sapiens, UniProt P03372); test: Fluorescence polarization competition assay: antagonistic potency and relative binding affinity; conditions: for Ki: calculated antagonistic (inhibitory) constant, read-out: Ka ERα; for IC50: concentration that antagonizes 50% of ERα signaling activity, read-out: ERα (IC50 nM); for logRBA ERα: log of % relative binding affinity, estradiol = 100%; for ERα potency, fold higher than Ral: ratio of IC50 values
# T1 sequence (P03372 1-595): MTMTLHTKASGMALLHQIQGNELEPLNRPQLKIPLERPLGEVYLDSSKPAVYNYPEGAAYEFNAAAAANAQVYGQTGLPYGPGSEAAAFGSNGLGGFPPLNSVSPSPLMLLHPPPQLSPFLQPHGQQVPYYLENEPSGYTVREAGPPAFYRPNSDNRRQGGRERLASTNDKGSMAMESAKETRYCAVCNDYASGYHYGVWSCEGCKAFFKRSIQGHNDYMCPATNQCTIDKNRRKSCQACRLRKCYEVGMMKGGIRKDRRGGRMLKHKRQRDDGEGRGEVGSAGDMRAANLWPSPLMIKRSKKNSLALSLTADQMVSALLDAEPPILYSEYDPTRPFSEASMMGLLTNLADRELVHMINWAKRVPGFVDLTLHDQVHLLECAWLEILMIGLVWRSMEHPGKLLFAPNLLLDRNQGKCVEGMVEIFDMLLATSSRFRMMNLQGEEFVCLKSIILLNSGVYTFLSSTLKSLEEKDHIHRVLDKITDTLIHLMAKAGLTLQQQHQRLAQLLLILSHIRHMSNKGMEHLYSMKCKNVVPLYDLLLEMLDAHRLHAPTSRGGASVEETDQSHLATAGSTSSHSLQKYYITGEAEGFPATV
# [2] = test system: MNU-induced breast cancer tissue; test: Histopathology of breast sections; assay type: in vivo, Wistar rats
# Method in brief: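 Rats with MNU-induced breast cancer were given selected leads at two concentrations. Breast tissue was examined histopathologically for lobuloalveolar units and epithelial changes, with slides photographed at 200x.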
# [3] = Plasma protein binding determination; assay type: in vitro ADME, rat; conditions: rat plasma, 37 °C, read-out: Rat PPB (%free)
# Procedure: Rats were housed at 3 per cage and
# The breast cancer was induced after the MNU (Sigma Aldrich CAS No. 684-93-5) administration. An aqueous solution at a concentration of 10 mg/ml was made by wetting the NMU powder with 3% acetic acid and then dissolving it in 0.9% NaCl solution; a fresh solution was prepared for each injection. Rats were given intraperitoneal (i.p.) 50 mg/kg of MNU on the 50th day of age. Animals were divided into different groups with six animals in each group. Group I (intact control) received 0.9% NaCl solution.
# Groups II-IV and V-VII were introduced with MNU. Two weeks after MNU treatment, animals were treated orally with synthesized compounds and control substances (5 and 50 mg/kg, for groups II-IV and V-VII, respectively) by gavage once per day for six weeks. Animals in the intact control group and untreated MNU group were given vehicle (Tween 80) according to the experimental protocol. […]
# Upon finishing the treatment with synthesized compounds, animals were sacrificed, and plasma, serum, and liver samples were collected. […]
# Rat plasma containing either 5 or 50 mg/kg bwt of the tested compounds was incubated at 37°C upper reservoir of the washed Centri-free YM-30 ultrafiltration units (Millipore, Bedford, MA) and then centrifuged for 20 min at 2,000 g. Aliquots of the ultrafiltrates and unfiltered incubation mixtures were analyzed for the total protein concentration by the bicinchoninic acid assay for protein concentration (BCA assay; Pierce, Rockford, IL).
Structure (SMILES),IC50 [1] [nM],Ki (ERα) [nM],IC50 (ERα) [nM],logRBA ERα (ERα),"ERα potency, fold higher than Ral (ERα) [fold]",breast section histopathology ([2]; 5 mg/kg of bwt),breast section histopathology ([2]; 50 mg/kg of bwt),fraction unbound at 5 mg/kg bwt [3],fraction unbound at 50 mg/kg bwt [3]
"CNCCOc1ccc(C(=O)O[C@@H]2/C=C/C(=O)O[C@@H](O)CCC/C=C/[C@@H]3C[C@H](O)C[C@H]32)cc1C(C)=O [Compound 3DPQ-1, (1R,2E,6R,10E,11aS,13S,14aR)-6,13-dihydroxy-4-oxo-4,6,7,8,9,11a,12,13,14,14a-decahydro-1H-cyclopenta[f][1]oxacyclotridecin-1-yl 3-acetyl-4-(2-(methylamino)ethoxy)benzoate]",0.94 ± 0.36,0.13,0.57 ± 0.54,"2.19 ^‡,§",1.30,lobuloalveolar unit (LaU) and cuboidal epithelial cells (CE),lobuloalveolar unit (LaU) and cuboidal epithelial cells (CE),0.0133,0.0122
"CC(=O)c1cc(C(=O)O[C@@H]2/C=C/C(=O)O[C@@H](O)CCC/C=C/[C@@H]3C[C@H](O)C[C@H]32)ccc1OCCN1CCCC(O)C1=O (stereo partly drawn) [Compound 3DPQ-12, (1R,2E,6R,10E,11aS,13S,14aR)-6,13-dihydroxy-4-oxo-4,6,7,8,9,11a,12,13,14,14a-decahydro-1H-cyclopenta[f][1]oxacyclotridecin-1-yl 3-acetyl-4-(2-(3-hydroxy-2-oxopiperidin-1-yl)ethoxy)benzoate]",0.77 ± 0.43,0.09,0.4 ± 0.43,"2.35 ^†,‡,§",1.85,lobuloalveolar unit (LaU) and cuboidal epithelial cells (CE),lobuloalveolar unit (LaU) and cuboidal epithelial cells (CE),0.0124,0.0131
"CC(=O)c1cc(C(=O)OC2/C=C/C(=O)O[C@@H](O)CCC/C=C/[C@@H]3C[C@H](O)C[C@@H]23)ccc1OCCN1CCC=C(C(=O)O)C1 (stereo partly drawn) [Compound 3DPQ-3, 1-(2-(2-acetyl-4-((((2E,6R,10E,11aS,13S,14aR)-6,13-dihydroxy-4-oxo-4,6,7,8,9,11a,12,13,14,14a-decahydro-1H-cyclopenta[f][1]oxacyclotridecin-1-yl)oxy)carbonyl)phenoxy)ethyl)-1,2,5,6-tetrahydropyridine-3-carboxylic acid]",0.84 ± 0.74,0.1,0.44 ± 0.31,"2.31 ^†,‡,§",1.68,lobuloalveolar unit (LaU) and cuboidal epithelial cells (CE),lobuloalveolar unit (LaU) and cuboidal epithelial cells (CE),0.0134,0.0147
"CC(=O)c1cc(C(=O)O[C@@H]2/C=C/C(=O)O[C@@H](O)CCC/C=C/[C@@H]3C[C@H](O)C[C@H]32)ccc1OCCN(C)C [Compound 3DPQ-2, (1R,2E,6R,10E,11aS,13S,14aR)-6,13-dihydroxy-4-oxo-4,6,7,8,9,11a,12,13,14,14a-decahydro-1H-cyclopenta[f][1]oxacyclotridecin-1-yl 3-acetyl-4-(2-(dimethylamino)ethoxy)benzoate]",0.99 ± 0.35,0.12,0.54 ± 0.31,"2.22 ^†,‡,§",1.37,lobuloalveolar unit (LaU) and cuboidal epithelial cells (CE),,0.0115,0.0124
"CC(=O)c1cc(C(=O)O[C@@H]2/C=C/C(=O)O[C@@H](O)CCC/C=C/[C@@H]3C[C@H](O)C[C@H]32)ccc1OCCN1CC(C(=O)O)=CCC1=O [Compound 3DPQ-9, 1-(2-(2-acetyl-4-((((1R,2E,6R,10E,11aS,13S,14aR)-6,13-dihydroxy-4-oxo-4,6,7,8,9,11a,12,13,14,14a-decahydro-1H-cyclopenta[f][1]oxacyclotridecin-1-yl)oxy)carbonyl)phenoxy)ethyl)-6-oxo-1,2,5,6-tetrahydropyridine-3-carboxylic acid]",0.89 ± 0.24,0.1,0.45 ± 0.14,"2.30 ^†,‡,§",1.64,lobuloalveolar unit (LaU) and cuboidal epithelial cells (CE),lobuloalveolar unit (LaU) and cuboidal epithelial cells (CE),0.0128,0.0131
